Measured values taken from patent US10358434B2, “2-(3-pyridinyl)-1H-benzimidazole derivative compound and medicament containing same” (NIHON MEDI-PHYSICS CO., LTD., priority 2014, dated 2019).

What was measured:
[1] = Plasma stability evaluation (TLC analysis); assay type: in vitro ADME; conditions: 37° C., 60 minutes, TLC analysis
Outline: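 Radiolabelled compounds were incubated in heparin-treated pooled normal human plasma at 37° C for 60 minutes. After methanol deproteinization and centrifugation, stability was assessed by TLC under the conditions used for each compound's synthesis.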

[2] = system: human adrenal gland section expressing aldosterone-producing adenoma; experiment: In vitro autoradiography using human adrenal adenoma; assay type: binding; conditions: section of FIG. 17(b)
Outline: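 Frozen 7-μm sections of human adrenal bearing aldosterone-producing adenoma were immersed 10 min in radioligand (5-33 kBq/mL) in PBS with 1% fatty-acid-free BSA, washed, then exposed to imaging plates for 16-20 h. Equal-area ROI PSL in adenoma (B2) versus normal cortex (B1) gave B2/B1, corrected for nuclide half-life, added activity and exposure time.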

[3] = In vivo kinetics experiment (radioactivity distribution); design: species or system Wistar male rat; conditions: rat i.v., mean ± SD
Outline: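 Male Wistar rats (9 weeks) under isoflurane received approximately 1 to 3.7 MBq radiotracer in saline with 1 w/v % ascorbic acid by tail-vein injection. At 10, 30 and 60 min, rats were exsanguinated; blood, organs and remaining body weighed and counted, giving % ID/g and adrenal-to-tissue ratios.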

COc1cc([123I])cc2c1nc(-c1cncc(Cn3ccnc3)c1)n2C1CC1 [[^123I] 609, 1-Cyclopropyl-2-[5-(imidazol-1-ylmethyl)pyridin-3-yl]-6-[^123I]iodo-4-methoxybenzimidazole]
Radiochemical purity after incubation in human plasma [1]: 86% | B2/B1 accumulation ratio [2]: 0.85 | B2 (PSL value, aldosterone-producing adenoma) ([2]; site 71b): 3805 | B1 (PSL value, normal adrenal cortex) ([2]; site 72b): 4479 | Adrenal gland/blood ratio of radioactivity accumulation ([3]; 10 min after administration): 70.18 ± 9.10 | Adrenal gland/fat ratio of radioactivity accumulation ([3]; 10 min after administration): 92.34 ± 17.88 | Adrenal gland/kidney ratio of radioactivity accumulation ([3]; 10 min after administration): 7.38 ± 1.46 | Adrenal gland/liver ratio of radioactivity accumulation ([3]; 10 min after administration): 1.55 ± 0.09 | Adrenal gland/muscle ratio of radioactivity accumulation ([3]; 10 min after administration): 46.03 ± 17.74 | Adrenal gland/small intestine ratio of radioactivity accumulation ([3]; 10 min after administration): 5.04 ± 0.97 | Radioactivity distribution Adrenal gland ([3]; 10 min after administration): 8.54 ± 1.17 % ID/g | Radioactivity distribution Bladder (including urine) ([3]; 10 min after administration): 0.17 ± 0.08 % ID/g | Radioactivity distribution Blood ([3]; 10 min after administration): 0.12 ± 0.00 % ID/g | Radioactivity distribution Fat ([3]; 10 min after administration): 0.09 ± 0.01 % ID/g | Radioactivity distribution Femur ([3]; 10 min after administration): 0.37 ± 0.06 % ID/g | Radioactivity distribution Heart ([3]; 10 min after administration): 0.36 ± 0.01 % ID/g | Radioactivity distribution Kidney ([3]; 10 min after administration): 1.17 ± 0.08 % ID/g | Radioactivity distribution Large intestine ([3]; 10 min after administration): 0.16 ± 0.01 % ID/g | Radioactivity distribution Liver ([3]; 10 min after administration): 5.50 ± 0.46 % ID/g | Radioactivity distribution Lung ([3]; 10 min after administration): 0.51 ± 0.04 % ID/g | Radioactivity distribution Muscle (lower limbs) ([3]; 10 min after administration): 0.20 ± 0.06 % ID/g | Radioactivity distribution Remaining whole body ([3]; 10 min after administration): 0.20 ± 0.03 % ID/g | Radioactivity distribution Small intestine ([3]; 10 min after administration): 1.71 ± 0.18 % ID/g | Radioactivity distribution Spleen ([3]; 10 min after administration): 0.82 ± 0.05 % ID/g | Radioactivity distribution Stomach ([3]; 10 min after administration): 0.65 ± 0.25 % ID/g | Radioactivity distribution Testis ([3]; 10 min after administration): 0.05 ± 0.00 % ID/g | Radioactivity distribution Whole brain ([3]; 10 min after administration): 0.02 ± 0.00 % ID/g | Adrenal gland/blood ratio of radioactivity accumulation ([3]; 30 min after administration): 78.36 ± 23.36 | Adrenal gland/fat ratio of radioactivity accumulation ([3]; 30 min after administration): 110.76 ± 35.85 | Adrenal gland/kidney ratio of radioactivity accumulation ([3]; 30 min after administration): 11.13 ± 2.62 | Adrenal gland/liver ratio of radioactivity accumulation ([3]; 30 min after administration): 2.54 ± 0.51 | Adrenal gland/muscle ratio of radioactivity accumulation ([3]; 30 min after administration): 66.27 ± 15.78 | Adrenal gland/small intestine ratio of radioactivity accumulation ([3]; 30 min after administration): 2.54 ± 0.80 | Radioactivity distribution Adrenal gland ([3]; 30 min after administration): 11.21 ± 3.24 % ID/g | Radioactivity distribution Bladder (including urine) ([3]; 30 min after administration): 0.80 ± 0.10 % ID/g | Radioactivity distribution Blood ([3]; 30 min after administration): 0.14 ± 0.01 % ID/g | Radioactivity distribution Fat ([3]; 30 min after administration): 0.10 ± 0.02 % ID/g | Radioactivity distribution Femur ([3]; 30 min after administration): 0.29 ± 0.04 % ID/g | Radioactivity distribution Heart ([3]; 30 min after administration): 0.36 ± 0.02 % ID/g | Radioactivity distribution Kidney ([3]; 30 min after administration): 1.00 ± 0.07 % ID/g | Radioactivity distribution Large intestine ([3]; 30 min after administration): 0.18 ± 0.03 % ID/g | Radioactivity distribution Liver ([3]; 30 min after administration): 4.36 ± 0.46 % ID/g | Radioactivity distribution Lung ([3]; 30 min after administration): 0.42 ± 0.05 % ID/g | Radioactivity distribution Muscle (lower limbs) ([3]; 30 min after administration): 0.17 ± 0.03 % ID/g | Radioactivity distribution Remaining whole body ([3]; 30 min after administration): 0.14 ± 0.01 % ID/g | Radioactivity distribution Small intestine ([3]; 30 min after administration): 4.44 ± 0.63 % ID/g | Radioactivity distribution Spleen ([3]; 30 min after administration): 0.43 ± 0.03 % ID/g | Radioactivity distribution Stomach ([3]; 30 min after administration): 1.27 ± 0.17 % ID/g | Radioactivity distribution Testis ([3]; 30 min after administration): 0.07 ± 0.01 % ID/g | Radioactivity distribution Whole brain ([3]; 30 min after administration): 0.02 ± 0.00 % ID/g | Adrenal gland/blood ratio of radioactivity accumulation ([3]; 60 min after administration): 87.48 ± 12.64 | Adrenal gland/fat ratio of radioactivity accumulation ([3]; 60 min after administration): 147.76 ± 20.75 | Adrenal gland/kidney ratio of radioactivity accumulation ([3]; 60 min after administration): 13.00 ± 2.52 | Adrenal gland/liver ratio of radioactivity accumulation ([3]; 60 min after administration): 3.99 ± 0.57 | Adrenal gland/muscle ratio of radioactivity accumulation ([3]; 60 min after administration): 103.59 ± 13.53 | Adrenal gland/small intestine ratio of radioactivity accumulation ([3]; 60 min after administration): 1.53 ± 0.14 | Radioactivity distribution Adrenal gland ([3]; 60 min after administration): 11.04 ± 1.72 % ID/g | Radioactivity distribution Bladder (including urine) ([3]; 60 min after administration): 2.03 ± 0.70 % ID/g | Radioactivity distribution Blood ([3]; 60 min after administration): 0.13 ± 0.00 % ID/g | Radioactivity distribution Fat ([3]; 60 min after administration): 0.07 ± 0.01 % ID/g | Radioactivity distribution Femur ([3]; 60 min after administration): 0.33 ± 0.03 % ID/g | Radioactivity distribution Heart ([3]; 60 min after administration): 0.33 ± 0.02 % ID/g | Radioactivity distribution Kidney ([3]; 60 min after administration): 0.85 ± 0.03 % ID/g | Radioactivity distribution Large intestine ([3]; 60 min after administration): 0.63 ± 0.43 % ID/g | Radioactivity distribution Liver ([3]; 60 min after administration): 2.77 ± 0.15 % ID/g | Radioactivity distribution Lung ([3]; 60 min after administration): 0.38 ± 0.02 % ID/g | Radioactivity distribution Muscle (lower limbs) ([3]; 60 min after administration): 0.11 ± 0.00 % ID/g | Radioactivity distribution Remaining whole body ([3]; 60 min after administration): 0.10 ± 0.00 % ID/g | Radioactivity distribution Small intestine ([3]; 60 min after administration): 7.17 ± 0.45 % ID/g | Radioactivity distribution Spleen ([3]; 60 min after administration): 0.30 ± 0.01 % ID/g | Radioactivity distribution Stomach ([3]; 60 min after administration): 1.47 ± 0.33 % ID/g | Radioactivity distribution Testis ([3]; 60 min after administration): 0.07 ± 0.01 % ID/g | Radioactivity distribution Whole brain ([3]; 60 min after administration): 0.01 ± 0.00 % ID/g
